Data taken from patent US20120003177A1 (priority 2008, published 2012).
pIC50: −log10 of the molar value. Entries after “also recorded” stand apart in the source; their conditions may differ. Read-outs that look alike come from different tables or passages of the source.

How the values were obtained:
[1] = test system: SKOV-3 human ovarian cancer cell line; test: MTT cytotoxicity of polycurcumins to SKOV-3 cells (72 h treatment)
Experimental: The human ovarian carcinoma SKOV-3 cell line was purchased from American type culture collection (ATCC). Cells were cultured in RPMI 1640 medium supplemented with 10% fetal bovine serum (HyClone, Logan, Utah) and grown at 37° C. in a humidified atmosphere of 5% CO2 (v/v) in air. All of the experiments involving cells were performed on cells in the exponential growth phase.
The cytotoxicity of polycurcumins was determined using the standard 3-(4,5-dimethylthiazolyl-2)-2,5-diphenyltetrazolium bromide (MTT) cell proliferation kit (ATCC, Manassas, Va.) according to manufacturer's protocol. In brief, SKOV-3 cells were seeded onto 96-well plates with a density of 15,000 cells per well and incubated at 37° C. in a humidified atmosphere of 95% air and 5% CO2 for 16 h. The medium in each well was replaced with 200 μL of culture medium containing the treatments and cultured for 72 h. The medium in each well was then replaced with fresh media and the cells were incubated for another 24 h. The incubation medium was then replaced with 100 μL of fresh medium and 10 μL of MIT reagent. After 6 h, 100 μL of detergent reagent was added to each well and incubated for 18 h at room temperature in the dark until all the crystals dissolved. The absorbance intensity at 570 nm was recorded on a Bio-Rad (model 550) microplate reader. Cell viability is defined as the percent live cells compared with untreated controls.
For each polycurcumin tested, the commoners such as 3,3′-dithiodipropionic acid, pyromellitic dianhydride, tri(ethylene glycol) divinyl ether and PEG, were used as controls.

[2] = PBS at pH 7.2; cited from earlier work
[3] = test system: DU145 prostate carcinoma, A549 lung carcinoma, and HT29 colon carcinoma; settings: read-out: IC50 (50% inhibitory concentration); variety of cancer cell lines; cited from earlier work
[4] = cited from earlier work

O=C(O)CCSSCCC(=O)O [3,3′-dithiodipropionic acid]
cytotoxicity of comonomer controls against SKOV-3 cells [1]: no significant cytotoxicity

COc1cc(C=CC(=O)CC(=O)C=Cc2ccc(O)c(OC)c2)ccc1O [Curcumin, 1,7-bis-(4-hydroxy-3-methoxyphenyl)-hepta-1,6-diene-3,5-dione]
half life (t1/2) [2]: less than 10 min
pIC50 ([1]; Homo sapiens, SK-OV-3, read-out: IC50, curcumin equivalent dose): 4.68
IC50 ([1]; Homo sapiens, SK-OV-3, read-out: IC50-C (IC50 in terms of curcumin-equivalent dose)): 7.8 µg/mL
pIC50 [3]: 4.12 to 5.00
solubility of free curcumin in water, in words [4]: almost insoluble in water; also recorded: practically insoluble in water

C=COCCOCCOCCOC=C [tri(ethylene glycol) divinyl ether]
cytotoxicity of comonomer controls against SKOV-3 cells ([1]; SKOV-3, MTT, comonomers as controls): no significant cytotoxicity

O=c1oc(=O)c2cc3c(=O)oc(=O)c3cc12 [pyromellitic dianhydride]
cytotoxicity of comonomer controls against SKOV-3 cells [1]: no significant cytotoxicity

polyethylene glycol [PEG]
cytotoxicity of comonomer controls against SKOV-3 cells [1]: no significant cytotoxicity
